Measured values from the supplement of paper PMC11451515.

Assays:
Assay in all cases: AUC of viability dose-response curve (% viability x log10 dose units); higher = less sensitive
Details in all cases: 48 h
SEM cells = system: SEM cells
Method in brief: (§1)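 Medium-adapted leukemia cells in 1536-well plates, at 500 or 1000 cells/well, were incubated for 48 h at 37°C with library compounds in DMSO at 11 threefold doses from 47 μM to 0.79 nM. CellTiter-Glo One luminescence normalised per plate to DMSO and cell-free wells was fitted with a four-parameter log-logistic model over log10 doses. Area under the curve was integrated from this fit by trapezoidal rule, with curves beyond full viability scaled and failed quality-control curves removed.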

P12-Ichikawa = system: P12-Ichikawa
Method in brief: as §1

NOMO1 = system: NOMO1
Method in brief: as §1

[1] = RPMI 5 mM glucose + 10% dialyzed FBS

Compound | AUC of viability dose-response curve (SEM cells; HPLM + 10% dialyzed FBS) | AUC of viability dose-response curve (SEM cells; RPMI 5 mM glucose + 10% FBS) | AUC of viability dose-response curve (SEM cells; [1]) | AUC of viability dose-response curve (P12-Ichikawa; HPLM + 10% dialyzed FBS) | AUC of viability dose-response curve (P12-Ichikawa; RPMI 5 mM glucose + 10% FBS) | AUC of viability dose-response curve (P12-Ichikawa; [1]) | AUC of viability dose-response curve (NOMO1; HPLM + 10% dialyzed FBS) | AUC of viability dose-response curve (NOMO1; RPMI 5 mM glucose + 10% FBS) | AUC of viability dose-response curve (NOMO1; [1])
CC(C)(C)OC(=O)CN(Cc1ccc(Cl)cc1)Cc1ccc([N+](=O)[O-])s1 | 449 | 454 | 436 | 456 | 443 | 429 | 441 | 436 | 464
CSC1=CC(=CC=C1)NC2=NC3=C(C=N2)/C=C(C(=O)N3C)/C4=C(Cl)C=CC=C4Cl | 417 | 455 | 407 | 476 | 469 | 464 | 467 | 467 | 460
CC1(C)[C@@H](O[C@H]2O[C@H](C(=O)O)[C@@H](O)[C@H](O)[C@H]2O[C@@H]2O[C@H](C(=O)O)[C@@H](O)[C@H](O)[C@H]2O)CC[C@]2(C)[C@H]3C(=O)C=C4[C@@H]5C[C@@](C)(C(=O)O)CC[C@]5(C)CC[C@@]4(C)[C@]3(C)CC[C@@H]12 | 383 | 437 | 450 | 473 | 468 | 470 | 407 | 455 | 452
C[C@H](NC(=O)C(=O)Nc1ccccc1C(C)(C)C)C(=O)N[C@@H](CC(=O)O)C(=O)COc1c(F)c(F)cc(F)c1F | 395 | 391 | 390 | 440 | 427 | 425 | 428 | 445 | 450
COCCOC(=O)C/1=C(C)/NC/2=C(C1C3=CC=CC(=C3)O)/C(=O)CC(C2)C4=C(OC)C=CC=C4 (stereo unspecified) | 425 | 415 | 413 | 450 | 451 | 448 | 454 | 469 | 467
Cc1ccc(NC(=O)C2(c3ccc4c(c3)OC(F)(F)O4)CC2)nc1-c1cccc(C(=O)O)c1 | 241 | 202 | 232 | 268 | 253 | 260 | 252 | 246 | 264
COC(=O)N1CCN(Cc2cccc(NC(=O)Nc3ccc(C)nc3)c2F)CC1 | 470 | 464 | 448 | 458 | 434 | 408 | 418 | 434 | 434
Cc1ccc(-n2nc(C(C)(C)C)cc2NC(=O)Nc2ccc(OCCN3CCOCC3)c3ccccc23)cc1 | 403 | 399 | 398 | 477 | 463 | 473 | 474 | 460 | 471
CO/N=C(/C(=O)N[C@@H]1C(=O)N2C(C(=O)O)=C(Cn3ccc(=N)n3CCO)CS[C@H]12)c1csc(N)n1 | 413 | 461 | 467 | 460 | 452 | 463 | 421 | 446 | 459
